Read-outs that look alike come from different tables or passages of the source.
Tests used:
JNK3 = molecular target: T1, JNK3 (Homo sapiens, UniProt P53779); test: JNK enzyme activity assay, purified JNK3; assay type: biochemical; conditions: 10 μM; greatest inhibition was obtained for JNK3
T1 construct: purchased Thermo Fisher PV4563
Procedure: (§1) JNK activity was measured with JNK Activity Assay Kit (ab273417, Abcam). JNK activity assay was performed with purified JNK, JNK1 (PV3319, Thermo Fisher), JNK2 (PV3620, Thermo Fisher) JNK3(PV4563, Thermo Fisher). 0.3 μg of each JNK purified protein were incubated with c-Jun Protein/ATP in Kinase Assay Buffer for 1 hr followed by manufacturer's instruction with 10 μM small molecules. Catalysed substrate Phospho-c Jun (Ser 73) was detected by western blot analysis. Western blot analysis performed with JNK Activity Assay kit supplied anti-Phospho-cJun (Ser 73) Specific Antibody at 1:10,000 for overnight and Goat Anti-Rabbit HRP (ab205718, abeam) at 1:10,000 for 1 hr incubation as primary and secondary antibody.

JNK protein = test: Cellular thermal shift assay (CETSA), protein-ligand binding; design: species or system human; conditions: 10 μM, 60° C.; versus JNK-IN-5A
Procedure: HepG2 cells were trypsinized and calculated at 1×10^6 cells into 1.5 ml micro centrifuge tube with 100 μl cell culture media. Cells were incubated in a CO2 incubator at 37° C. for 1 hr with 10 μM of each target drug. Drug treated cells were heated at 60° C. for 3 min using a heat plate. Heated cells were lysed with Native lysis buffer (ab156035, Abcam). Thermal shifted JNK proteins were detected with western blot analysis using JNK1+2+3 antibody (Ab179461, Abcam) and band intensity was analysed with ImageJ program.

[1] = MTT cell viability after one week steatosis (ranking of target molecules); assay type: cell-based, human; conditions: human, HepG2 cells (wild type); HepG2, 10 μM, one week steatosis induce media, MTT; Control 100.00
Procedure: (§2) HepG2 wild type cells were purchased from genome engineering company Synthego. Cells were maintained with Roswell Park Memorial Institute growth media, RPMI, 1640 (R2405, Sigma-Aldrich) and supplemented with 10% fetal bovine serum (FBS, F7524, Sigma-Aldrich), 1% penicillin-streptomycin (P/S, P4333, Sigma-Aldrich). Steatosis induction media was prepared as high glucose Dulbecco's Modified Eagle Media (DMEM, D0819, Sigma-Aldrich) with 10% FBS, 1% P/S media supplemented with 10 μg/ml insulin (I9278, Sigma-Aldrich), and 10 μM T0901317 (T2320, Sigma-Aldrich). HepG2 cells were seeded 6×10^4 cells per well for 96-well plate and 1×10^6 cells per well for 6-well plate. HepG2 cells were incubated with steatosis induce media (SM) for one week by 3 day+2 day+2 day with total three times media exchange.
(§3) HepG2 cells were seeded at 60,000 cells per well in 96 well plate. Using steatosis induce media, the cells were treated with 10 μM of target drugs for one week. The media was changed 3 times at day 0, day 3 and day 5. TAG assay was performed using MAK266-1KT SDS Triglyceride Quantification Colorimetric kit and cell viability analysis was performed using MTT assay.

JNK1 = molecular target: T2, JNK1 (Homo sapiens, UniProt P45983); test: JNK enzyme activity assay, purified JNK1; assay type: biochemical; conditions: 10 μM, Phospho-c Jun (Ser 73) by western blot
T2 construct: purchased Thermo Fisher PV3319
Procedure: as §1

JNK2 = molecular target: T3, JNK2 (Homo sapiens, UniProt P45984); test: JNK enzyme activity assay, purified JNK2; assay type: biochemical; conditions: 10 μM, Phospho-c Jun (Ser 73) by western blot
T3 construct: purchased Thermo Fisher PV3620
Procedure: as §1

HepG2 cells = test: Triglyceride (TAG) measurement assay, one week steatosis model; assay type: cell-based, human; conditions: Homo sapiens
Procedure: as §2
HepG2 cells were seeded at 6×10^4 cells per well into 96 well plate and induced steatosis for one week with 10 μM of target drugs. After steatosis induction, cells were washed with 200 μl of phosphate buffered saline (PBS) and triglyceride contents was measured by Triglyceride Assay Kit—Quantification (ab65336, Abcam) following manufacturer's instruction. Optical density (O.D) values were detected with microplate reader at 570 nm (Hidex Sense Beta Plus).
as §3

[2] = 168 h, HepG2, 10 μM, one week steatosis induce media, Control 100.00, read-out: TAG (%)
[3] = HepG2, 168 h, ratio between TAG content and cell viability, Control 100.0, read-out: TAG/cell viability

T3 sequence (P45984 whole entry): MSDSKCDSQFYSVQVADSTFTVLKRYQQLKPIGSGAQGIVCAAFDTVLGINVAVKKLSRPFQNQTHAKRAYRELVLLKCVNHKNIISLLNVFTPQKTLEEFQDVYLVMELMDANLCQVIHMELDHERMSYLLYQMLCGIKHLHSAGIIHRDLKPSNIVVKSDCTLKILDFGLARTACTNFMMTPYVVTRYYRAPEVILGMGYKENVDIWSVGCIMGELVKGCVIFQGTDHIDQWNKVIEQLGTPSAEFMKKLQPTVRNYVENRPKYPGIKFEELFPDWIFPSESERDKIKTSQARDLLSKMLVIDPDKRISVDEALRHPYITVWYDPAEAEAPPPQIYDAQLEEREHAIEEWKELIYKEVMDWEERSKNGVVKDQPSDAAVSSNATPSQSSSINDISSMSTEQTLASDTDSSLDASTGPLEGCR
T2 sequence (P45983 whole entry): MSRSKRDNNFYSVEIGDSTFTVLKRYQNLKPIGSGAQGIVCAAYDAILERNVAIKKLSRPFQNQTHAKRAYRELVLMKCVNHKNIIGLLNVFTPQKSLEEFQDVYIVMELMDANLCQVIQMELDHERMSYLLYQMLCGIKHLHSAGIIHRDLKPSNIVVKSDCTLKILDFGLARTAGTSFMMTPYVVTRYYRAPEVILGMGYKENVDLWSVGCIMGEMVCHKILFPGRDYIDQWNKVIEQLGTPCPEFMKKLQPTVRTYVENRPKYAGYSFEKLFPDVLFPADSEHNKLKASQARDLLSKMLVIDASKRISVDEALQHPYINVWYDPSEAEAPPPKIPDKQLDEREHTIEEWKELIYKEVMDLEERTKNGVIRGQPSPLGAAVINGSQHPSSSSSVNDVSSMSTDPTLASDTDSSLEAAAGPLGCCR
T1 sequence (P53779 whole entry): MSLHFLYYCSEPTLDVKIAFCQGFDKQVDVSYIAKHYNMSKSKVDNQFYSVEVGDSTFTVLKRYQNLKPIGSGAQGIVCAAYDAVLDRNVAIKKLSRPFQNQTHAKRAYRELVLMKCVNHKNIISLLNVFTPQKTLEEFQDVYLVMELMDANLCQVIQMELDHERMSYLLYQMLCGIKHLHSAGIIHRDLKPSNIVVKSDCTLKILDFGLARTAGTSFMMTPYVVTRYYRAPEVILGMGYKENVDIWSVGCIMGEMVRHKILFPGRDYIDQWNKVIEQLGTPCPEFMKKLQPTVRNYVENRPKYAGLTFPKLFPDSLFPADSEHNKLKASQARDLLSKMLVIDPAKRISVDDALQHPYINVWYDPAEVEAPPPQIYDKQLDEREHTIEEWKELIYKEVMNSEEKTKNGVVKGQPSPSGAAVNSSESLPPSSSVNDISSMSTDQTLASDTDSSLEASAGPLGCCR

| JNK3 activity (JNK3) | binding to the JNK protein (JNK protein) | JNK1 activity (JNK1) | JNK2 activity (JNK2) | SMILES | viability at 1 week, 10 µM [1] | activity at 10 µM (HepG2 cells; [2]) | activity at 10 µM (HepG2 cells; [3]) |
| --- | --- | --- | --- | --- | --- | --- | --- |
| inhibited | better binding | inhibited | inhibited | CN(C)C(=O)N1CCc2c(sc(NC(=O)c3cccc4ccccc34)c2C#N)C1 [PKL-A117] | 40.6% | 12.8% | 31.4% |
| inhibited | better binding | inhibited | inhibited | N#Cc1c(NC(=O)c2cccc3ccccc23)sc2c1CCN(C(=O)Nc1ccccc1F)C2 [PKL-A119] | 40.1% | 12.5% | 31.2% |
| inhibited | better binding | inhibited | inhibited | CC(C)(C)OC(=O)N1CCc2c(sc(NC(=O)c3cccc4ccccc34)c2C#N)C1 [PKL-A131] | 44.8% | 13.1% | 29.3% |
| inhibited | better binding | inhibited | inhibited | COc1ccc(C(=O)N2CCc3c(sc(NC(=O)c4cccc5ccccc45)c3C#N)C2)cc1OC [PKL-A132] | 40.3% | 12.8% | 31.9% |
